Measured values reported in patent US7083969B2, “Serratia marcescens strain” (Korea Research Institute of Bioscience and Biotechnology, priority 1997, dated 2006).

Columns and labels:
[1] = system: CD8 T lymphocytes; conditions: known; cited from earlier work
[2] = system: T lymphocytes; conditions: known; cited from earlier work
[3] = system: T lymphocytes; assay: T cell-dependent immune response in vivo (antibody producing cells after sheep red blood cell immunization); design: species or system mice; conditions: 100 mg/kg; 4 days after immunization
Text: (§1) Germ-free test animals, mice BDF1 and B6C3F1, obtained from Genetic Resources Center, Korean Research Institute of Bioscience and Biotechnology in the Korean Institute of Science and Technology, were used for the assay of the immunosuppressive activity of prodigiosin. […] At such concentrations as show no cytotoxic effects, prodigiosin cannot suppress the immune response of B lymphocytes. […] This selective immunosuppression for T lymphocytes is not ascribed to the selective cytotoxicity for T lymphocytes. The same immunosuppression results as in the ex vivo experiments were obtained in in vivo experiments. When T lymphocyte activity was measured by use of a graft versus host reaction and a T cell-dependent antibody producing reaction, the prodigiosin suppressed the immune response, but exerted no toxicity on animals. Therefore, the immunosuppressive activity of the prodigiosin is thought to be attributed to the selective suppression for T lymphocyte activity.
(§2) A T cell-dependent immune response reaction was used to assess the influence of prodigiosin on T lymphocytes in vivo. Test animals were immunized with sheep red blood cells by peritoneal injection. 4 days after the immunization, the number of the antibody producing cells was counted. Prodigiosin was peritoneally injected everyday. Based on the number of the […] cells in the non-treated animals, the influence of prodigiosin on T lymphocytes in vivo was assessed as percentage. Also, the weight ratio of the spleen to the body was measured to assay the toxicity of prodigiosin to the animals. Cyclophosphamide was used as a positive control.

[4] = Body weight of injected mice in graft versus host experiment (toxicity); format: in vivo
Experimental: (§3) A graft versus host reaction was utilized for the in vivo assay of prodigiosin's immunosuppression. The graft versus host reaction enables an assessment of the immune response of T lymphocytes. On the sixth day after transplantation of the T lymphocytes of BDF1 mice different in histocompatibility antigen, the lymphatic nodes were measured for weight, thereby assessing the immune response of T lymphocyte to the grafted heteroantigens. The prodigiosin was peritoneally injected at a dose of 30–100 mg per kg of body weight for five days while cyclophosphamide, as a positive control, was peritoneally injected at a dose of 100 mg/kg for five days. The body weights of the injected mice were measured to compare the toxicity of prodigiosin with that of cyclophosphamide. […] As for the body weight, it was not changed in the mice injected with prodigiosin at an effective concentration.

[5] = system: T lymphocytes; assay: Graft versus host reaction in vivo (lymphatic node weight); design: species or system BDF1 mice; conditions: 100 mg/kg peritoneally for five days; sixth day after transplantation
Text: as §1, §3

[6] = Weight ratio of the spleen to the body (toxicity); format: in vivo, mice
Experimental: as §2

Compound | suppression of CD8 T lymphocytes [1] | proliferation of T lymphocytes [2] | Immune Response (%) [3] [%] | Body weight ([4]; 100 mg/kg peritoneally for five days) [g] | body weight change ([4]; at an effective concentration) | Wt. (mg) of Lymphatic node [5] [mg] | Wt. Ratio of spleen/body (%) ([6]; 100 mg/kg) | toxicity judged by weight ratio of the spleen to the body ([6]; at effective concentrations)
CCCCCCCCCCCc1ccc(/C=C2\N=C(c3ccc[nH]3)C=C2OC)[nH]1 [Prodigiosin 25-C, prodigiosin 25-C] | suppressed | suppress | – | – | – | – | – | –
O=P1(N(CCCl)CCCl)NCCCO1 (centres unmarked) [Cyclophosphamide, reference compound] | – | – | 7 | 18 | loss of body weight | 0.06 | 26 | very toxic
